Consider one compound from article PMC11830721 (Frontiers in Pharmacology, 2025).

Molecules are shown by their SMILES.

One series addresses 60 non-target kinases. The series is described as follows: SelectScreen kinase selectivity profiling, whole panel. The series is classed as biochemical. Particulars: all 60 kinases. The source says:
Moreover, we extended the kinase selectivity profiling of FLIN-4 to evaluate its inhibitory activity against 60 non-target kinases.

Another series concerns MV4-11 cells. In words: MTT anti-proliferation assay, MV4-11. The series is classed as cell-based. Particulars: Homo sapiens, 72-h treatment. How it is done:
In addition, the normal hematopoietic cell line was COLO 829BL from ATCC. The cells were maintained in RPMI-1640 medium supplemented with 10% FBS, and 1% penicillin and streptomycin. The cells were cultured in an incubator at 37°C with 5% CO2. […] The high-performance liquid chromatography (HPLC) spectra data for each compound are provided in the (Supplementary Figures S1–S6).
(§1) The effects of the test compounds on MV4-11, NB4, and COLO 829BL cell lines were quantitatively evaluated according to the methods previously reported ([Zhou et al., 2022]).

For another series, the system named is COLO 829BL cells. The series is described as follows: MTT assay, COLO 829BL (normal hematopoietic). To be noted: 2–64 μM. Type of series: cell-based.
Description: The human AML cell line MV4-11, which bears exclusive FLT3-ITD mutation genes, was purchased from the American Type Culture Collection (ATCC, Manassas, VA, United States), and the AML cell line NB4, a FLT3-wildtype cell line, was obtained from the China Center for Type Culture Collection (CCTCC, Wuhan, China). In addition, the normal hematopoietic cell line was COLO 829BL from ATCC. The cells were maintained in RPMI-1640 medium supplemented with 10% FBS, and 1% penicillin and streptomycin. The cells were cultured in an incubator at 37°C with 5% CO2. […] The high-performance liquid chromatography (HPLC) spectra data for each compound are provided in the (Supplementary Figures S1–S6). The FLT3-ITD mutant protein was purchased from Abcam (Cambridge, United Kingdom).
as §1
Subsequently, to further validate the specificity of FLIN-4 for cells expressing FLT3-ITD, we conducted MTT assays to assess the specificity and cytotoxicity of FLIN-4 within the concentration range of 2–64 μM on NB4 cells (harboring FLT3 wild-type) and COLO 829BL cells (representing normal hematopoietic cells). […]

The target in a further series is INSRR (Homo sapiens, UniProt P14616). The series is described as follows: SelectScreen kinase selectivity assay. Type of series: biochemical. To be noted: ten-dose 0.25–128 μM. How it is done:
(§2) Following the standardized kinase activity assay protocol as previously reported, we utilized the SelectScreen Kinase Profiling Service (Thermo Fisher Scientific) to determine the kinase selectivity profile of FLIN-4 ([van der Wel et al., 2020]). Through a ten-dose dilution series ranging from 0.25 μM to 128 μM in dose-response experiments, we precisely measured the inhibitory effect of FLIN-4 on the substrate phosphorylation reactions catalyzed by a panel of kinases, and thus ascertained the half-maximal inhibitory concentrations (IC50) for each kinase.

In another series the target is MET (Homo sapiens, UniProt P08581). In words: SelectScreen kinase selectivity assay. The series is classed as biochemical. Particulars: ten-dose 0.25–128 μM. On the procedure:
as §2

Another series concerns the target LTK (Homo sapiens, UniProt P29376). In words: SelectScreen kinase selectivity assay. The series is classed as biochemical. To be noted: ten-dose 0.25–128 μM. On the procedure:
as §2

For another series, the target named is EPHB4 (Homo sapiens, UniProt P54760). In words: SelectScreen kinase selectivity assay. Type of series: biochemical. To be noted: ten-dose 0.25–128 μM. How it is done: as §2
A further series addresses FGR (Homo sapiens, UniProt P09769). The series is described as follows: SelectScreen kinase selectivity assay. Type of series: biochemical. To be noted: ten-dose 0.25–128 μM. On the procedure: as §2
The next series concerns the target EPHA6 (Homo sapiens, UniProt Q9UF33). The series is described as follows: SelectScreen kinase selectivity assay. The series is classed as biochemical. Particulars: ten-dose 0.25–128 μM. On the procedure:
as §2

A further series concerns the target EPHA5 (Homo sapiens, UniProt P54756). In words: SelectScreen kinase selectivity assay. The series is classed as biochemical. To be noted: ten-dose 0.25–128 μM. On the procedure:
as §2

Another series deals with FGFR3 (Homo sapiens, UniProt P22607). The series is described as follows: SelectScreen kinase selectivity assay. The series is classed as biochemical. To be noted: ten-dose 0.25–128 μM. How it is done:
as §2

The next series has as its target NTRK3 (Homo sapiens, UniProt Q16288). In words: SelectScreen kinase selectivity assay. To be noted: ten-dose 0.25–128 μM. The series is classed as biochemical. How it is done: as §2
The target of the next series is EPHA3 (Homo sapiens, UniProt P29320). The series is described as follows: SelectScreen kinase selectivity assay. Type of series: biochemical. Particulars: ten-dose 0.25–128 μM. On the procedure: as §2
The target in a further series is RAF1 (Homo sapiens, UniProt P04049, Y340D/Y341D). In words: SelectScreen kinase selectivity assay. The series is classed as biochemical. Particulars: ten-dose 0.25–128 μM. On the procedure:
as §2

The next series addresses BMX (Homo sapiens, UniProt P51813). In words: SelectScreen kinase selectivity assay. Type of series: biochemical. To be noted: ten-dose 0.25–128 μM. How it is done: as §2
In the next series the target is LYN (Homo sapiens, UniProt P07948). The series is described as follows: SelectScreen kinase selectivity assay. The series is classed as biochemical. To be noted: ten-dose 0.25–128 μM. How it is done: as §2
A further series has as its target NTRK1 (Homo sapiens, UniProt P04629). In words: SelectScreen kinase selectivity assay. Type of series: biochemical. Particulars: ten-dose 0.25–128 μM. On the procedure:
as §2

The target in another series is NTRK2 (Homo sapiens, UniProt Q16620). The series is described as follows: SelectScreen kinase selectivity assay. The series is classed as biochemical. Particulars: ten-dose 0.25–128 μM. How it is done: as §2
For the next series, the target named is EPHA4 (Homo sapiens, UniProt P54764). The series is described as follows: SelectScreen kinase selectivity assay. The series is classed as biochemical. Particulars: ten-dose 0.25–128 μM. How it is done:
as §2

Chain of LTK (P29376 17-864): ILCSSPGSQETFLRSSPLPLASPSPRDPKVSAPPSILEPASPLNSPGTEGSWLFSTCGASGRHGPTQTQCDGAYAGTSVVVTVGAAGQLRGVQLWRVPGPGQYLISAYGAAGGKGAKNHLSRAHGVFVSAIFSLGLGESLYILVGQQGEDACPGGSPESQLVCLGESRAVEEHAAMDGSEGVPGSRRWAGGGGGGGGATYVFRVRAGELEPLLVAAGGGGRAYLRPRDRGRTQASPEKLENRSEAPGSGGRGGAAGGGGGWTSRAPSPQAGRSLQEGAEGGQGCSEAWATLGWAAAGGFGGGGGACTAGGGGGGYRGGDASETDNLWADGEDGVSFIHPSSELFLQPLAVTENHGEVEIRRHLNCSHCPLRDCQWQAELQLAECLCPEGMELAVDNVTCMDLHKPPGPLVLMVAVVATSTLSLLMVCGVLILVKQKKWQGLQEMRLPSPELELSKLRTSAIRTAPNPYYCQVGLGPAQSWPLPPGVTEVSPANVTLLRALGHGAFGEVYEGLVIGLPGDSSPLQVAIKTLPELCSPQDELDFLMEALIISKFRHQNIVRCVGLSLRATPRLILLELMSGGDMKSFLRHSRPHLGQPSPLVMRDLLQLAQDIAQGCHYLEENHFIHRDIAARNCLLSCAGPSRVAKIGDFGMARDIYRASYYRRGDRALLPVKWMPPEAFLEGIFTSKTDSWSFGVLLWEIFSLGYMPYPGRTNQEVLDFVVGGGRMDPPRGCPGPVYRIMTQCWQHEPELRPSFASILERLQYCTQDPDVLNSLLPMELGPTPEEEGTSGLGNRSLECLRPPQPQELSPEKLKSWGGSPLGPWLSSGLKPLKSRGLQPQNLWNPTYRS
Chain of MET (P08581 25-1390): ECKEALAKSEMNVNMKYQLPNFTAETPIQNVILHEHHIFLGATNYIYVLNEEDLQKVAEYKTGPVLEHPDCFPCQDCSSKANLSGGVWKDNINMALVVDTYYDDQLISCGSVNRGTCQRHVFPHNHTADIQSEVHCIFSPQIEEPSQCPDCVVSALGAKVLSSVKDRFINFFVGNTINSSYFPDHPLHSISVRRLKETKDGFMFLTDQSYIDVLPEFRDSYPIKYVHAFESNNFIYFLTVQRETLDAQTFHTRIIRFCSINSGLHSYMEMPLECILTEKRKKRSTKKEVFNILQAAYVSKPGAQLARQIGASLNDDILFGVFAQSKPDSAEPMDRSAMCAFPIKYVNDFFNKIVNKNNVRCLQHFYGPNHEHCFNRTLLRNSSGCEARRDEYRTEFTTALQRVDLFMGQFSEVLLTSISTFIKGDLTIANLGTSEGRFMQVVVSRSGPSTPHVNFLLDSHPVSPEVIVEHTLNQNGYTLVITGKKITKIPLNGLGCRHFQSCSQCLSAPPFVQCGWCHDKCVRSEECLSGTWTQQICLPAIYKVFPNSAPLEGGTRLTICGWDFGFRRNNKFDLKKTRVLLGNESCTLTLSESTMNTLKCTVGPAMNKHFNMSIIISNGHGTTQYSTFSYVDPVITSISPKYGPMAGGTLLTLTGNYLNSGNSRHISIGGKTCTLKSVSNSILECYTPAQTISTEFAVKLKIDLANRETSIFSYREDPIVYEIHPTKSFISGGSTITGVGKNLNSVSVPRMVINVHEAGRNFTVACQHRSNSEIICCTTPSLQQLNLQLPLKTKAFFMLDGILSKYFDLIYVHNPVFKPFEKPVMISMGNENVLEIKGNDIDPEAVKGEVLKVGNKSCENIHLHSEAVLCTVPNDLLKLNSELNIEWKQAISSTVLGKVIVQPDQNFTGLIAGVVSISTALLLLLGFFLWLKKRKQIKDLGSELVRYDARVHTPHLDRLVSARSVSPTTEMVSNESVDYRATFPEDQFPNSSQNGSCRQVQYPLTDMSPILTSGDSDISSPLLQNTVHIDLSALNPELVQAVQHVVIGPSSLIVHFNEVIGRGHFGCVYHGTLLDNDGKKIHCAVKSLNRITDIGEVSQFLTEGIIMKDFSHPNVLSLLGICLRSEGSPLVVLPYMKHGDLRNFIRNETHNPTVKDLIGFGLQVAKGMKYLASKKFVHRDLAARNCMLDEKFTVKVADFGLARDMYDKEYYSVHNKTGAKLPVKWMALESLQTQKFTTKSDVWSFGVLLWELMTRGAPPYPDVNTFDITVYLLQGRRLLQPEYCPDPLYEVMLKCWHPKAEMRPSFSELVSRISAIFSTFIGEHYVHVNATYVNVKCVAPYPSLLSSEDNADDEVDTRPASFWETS
Chain of NTRK3 (Q16288 32-839): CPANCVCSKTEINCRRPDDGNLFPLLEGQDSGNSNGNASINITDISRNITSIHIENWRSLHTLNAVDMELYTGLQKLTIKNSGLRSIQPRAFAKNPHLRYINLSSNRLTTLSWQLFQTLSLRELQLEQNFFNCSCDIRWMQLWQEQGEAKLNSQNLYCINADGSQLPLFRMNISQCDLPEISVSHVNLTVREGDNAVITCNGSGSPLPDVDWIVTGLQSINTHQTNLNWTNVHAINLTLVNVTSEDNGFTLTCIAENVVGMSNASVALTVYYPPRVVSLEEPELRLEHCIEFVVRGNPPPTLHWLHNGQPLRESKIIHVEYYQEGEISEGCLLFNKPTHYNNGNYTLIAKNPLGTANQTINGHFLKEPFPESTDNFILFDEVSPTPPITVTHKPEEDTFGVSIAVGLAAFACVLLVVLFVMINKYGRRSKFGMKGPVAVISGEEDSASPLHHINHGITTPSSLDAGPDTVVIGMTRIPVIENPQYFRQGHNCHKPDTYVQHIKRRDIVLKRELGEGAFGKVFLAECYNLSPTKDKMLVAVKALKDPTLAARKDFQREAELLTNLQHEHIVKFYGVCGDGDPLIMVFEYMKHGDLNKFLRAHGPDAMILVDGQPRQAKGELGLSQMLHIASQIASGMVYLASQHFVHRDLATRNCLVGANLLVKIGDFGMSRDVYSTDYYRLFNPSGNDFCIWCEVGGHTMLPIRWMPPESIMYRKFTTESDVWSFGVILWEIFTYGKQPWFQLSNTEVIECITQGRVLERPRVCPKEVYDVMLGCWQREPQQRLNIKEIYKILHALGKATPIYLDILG
Chain of RAF1 (P04049 306-648 Y340D/Y341D limits assumed): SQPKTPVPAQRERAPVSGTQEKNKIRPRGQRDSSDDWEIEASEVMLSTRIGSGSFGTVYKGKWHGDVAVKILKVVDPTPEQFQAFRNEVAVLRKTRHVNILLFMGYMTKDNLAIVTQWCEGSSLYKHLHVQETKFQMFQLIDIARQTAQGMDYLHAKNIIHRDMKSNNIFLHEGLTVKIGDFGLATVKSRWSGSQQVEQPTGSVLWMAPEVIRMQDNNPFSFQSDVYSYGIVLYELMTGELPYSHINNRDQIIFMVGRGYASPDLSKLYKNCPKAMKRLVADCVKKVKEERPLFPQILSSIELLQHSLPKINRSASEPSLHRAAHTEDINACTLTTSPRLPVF
Chain of FGFR3 (P22607 23-806): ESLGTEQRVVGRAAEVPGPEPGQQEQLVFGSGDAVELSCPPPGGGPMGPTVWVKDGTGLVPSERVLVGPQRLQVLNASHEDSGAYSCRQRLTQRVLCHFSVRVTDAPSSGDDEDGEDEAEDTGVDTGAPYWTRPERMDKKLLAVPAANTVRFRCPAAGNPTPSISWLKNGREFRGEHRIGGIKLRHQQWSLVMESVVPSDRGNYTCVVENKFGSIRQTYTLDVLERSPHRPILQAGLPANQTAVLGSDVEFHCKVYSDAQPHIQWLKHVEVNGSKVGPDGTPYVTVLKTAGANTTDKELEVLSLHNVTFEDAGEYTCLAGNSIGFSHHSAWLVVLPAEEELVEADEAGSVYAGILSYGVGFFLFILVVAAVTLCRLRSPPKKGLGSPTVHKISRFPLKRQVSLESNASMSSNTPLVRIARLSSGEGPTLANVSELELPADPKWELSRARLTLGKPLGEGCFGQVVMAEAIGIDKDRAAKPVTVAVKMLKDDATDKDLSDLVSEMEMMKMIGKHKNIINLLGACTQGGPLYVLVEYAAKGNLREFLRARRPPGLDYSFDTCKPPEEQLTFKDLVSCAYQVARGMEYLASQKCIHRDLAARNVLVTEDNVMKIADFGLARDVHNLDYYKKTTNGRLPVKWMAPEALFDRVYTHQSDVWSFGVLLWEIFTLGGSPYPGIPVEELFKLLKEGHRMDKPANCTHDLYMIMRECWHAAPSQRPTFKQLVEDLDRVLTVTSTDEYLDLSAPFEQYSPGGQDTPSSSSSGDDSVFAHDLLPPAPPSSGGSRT
Chain of BMX (P51813 whole entry): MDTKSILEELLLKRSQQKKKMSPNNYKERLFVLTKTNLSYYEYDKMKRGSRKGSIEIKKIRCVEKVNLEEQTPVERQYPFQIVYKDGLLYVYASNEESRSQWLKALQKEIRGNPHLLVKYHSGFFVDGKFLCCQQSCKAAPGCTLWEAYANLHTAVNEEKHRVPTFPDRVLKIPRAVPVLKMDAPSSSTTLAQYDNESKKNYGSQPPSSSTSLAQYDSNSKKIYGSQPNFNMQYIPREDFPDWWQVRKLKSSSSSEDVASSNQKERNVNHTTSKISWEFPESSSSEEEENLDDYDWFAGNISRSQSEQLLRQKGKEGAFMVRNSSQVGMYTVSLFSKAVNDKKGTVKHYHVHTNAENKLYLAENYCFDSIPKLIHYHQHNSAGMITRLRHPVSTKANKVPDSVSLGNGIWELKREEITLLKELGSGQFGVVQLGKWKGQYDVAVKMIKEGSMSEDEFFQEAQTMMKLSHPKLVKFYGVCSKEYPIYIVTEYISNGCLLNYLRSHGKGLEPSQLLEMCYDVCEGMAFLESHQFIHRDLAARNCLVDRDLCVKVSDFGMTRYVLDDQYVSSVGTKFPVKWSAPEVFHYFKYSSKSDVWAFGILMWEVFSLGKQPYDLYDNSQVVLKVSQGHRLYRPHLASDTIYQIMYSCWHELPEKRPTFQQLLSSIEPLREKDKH

Turning to `CCc1nc(C(N)=O)c(Nc2ccc(N3CCC(Nc4ccccc4)CC3)c(OC)c2)nc1NC1CCOC(C(O)CO)C1` (stereo not shown) [FLIN-4], the IC50 was greater than 10 µM on 60 non-target kinases; 0.00131 ± 6e-05 µM with MV4-11 cells; greater than 10 µM against INSRR; greater than 10 µM against MET; greater than 10 µM on LTK; greater than 10 µM against EPHB4. For the same compound, the IC50 at FGR, against EPHA6, against EPHA5, at FGFR3, against NTRK3 and on EPHA3 was greater than 10 µM in each case. In addition, the IC50 against RAF1, against BMX, against LYN, against NTRK1, against NTRK2 and against EPHA4 was greater than 10 µM in each case. For the same compound, the “Survival rate of COLO 829BL cells” value in the series with COLO 829BL cells is reported as “did not induce any significant changes in the survival rates”.
